These results are taken from patent EP0394283B1, “USE OF A TRIPEPTIDE FOR THE PREPARATION OF PHARMACEUTICAL COMPOSITIONS AND A PHARMACEUTICAL COMPOSITION AND METHOD” (Hafslund Nycomed AS, priority 1987, dated 1992).

For the experiment, the system named is large intestinal epithelium. Description: Mitotic rate (Colcemid-arrested metaphases per 500 crypt cells) in the large intestinal epithelium after i.p. injection. The class given is in vivo, hairless mice. The following applies: dose of 10⁻¹² mole per animal, at the doses and times tested. The method, then:
All in vivo experiments were performed with hairless mice at 0800-0900 AM. The fractions were suspended in distilled water, slightly acidified (pH=6) and injected i.p. at different doses dependent on the purity of the fraction. The controls received solvent only. The pattern of cell proliferation after injecting the peptide was examined by varying the time between treatment and sacrifice.
Two hours before sacrifice (except for the experiments testing tissue specificity in the kidney) all animals received Colcemid 0.15 mg per animal i.p. ³HTdR (tritiated thymidine) was injected 30 minutes before sacrifice (30 µCi per animal i.p.). […]
Mitotic rate: After routine dehydration and paraffin embedding, sections were cut at 5 µm and stained with haematoxylin. Colcemid-arrested mitoses per 500 crypt cells were determined in ten longitudinally cut crypts in ileum and colon. […] The number of accumulated metaphases in epidermis was determined by counting 25 vision fields of interfollicular epidermis (eyepiece 12.5, objective 40) and expressed as mitoses per vision field per 2h.

Residues, ends and D or L forms follow the SMILES beside them.

Turning to `O=C(O)CC[C@H](NC(=O)[C@@H]1CCC(=O)N1)C(=O)N[C@@H](CC(=O)O)C(=O)N[C@@H](CO)C(=O)NCC(=O)O` [pGlu-Glu-Asp-Ser-Gly(OH)] (HELM PEPTIDE1{[Glp].E.D.S.G}$$$$V2.0), the “cell proliferation in the large intestinal epithelium” value was “unchanged”.
